Values quoted from earlier work, collected in US20030045478A1, “Gamma-ketoacid dipeptide derivatives as inhibitors of caspase-3” (priority 2000, published 2003).

How the values were obtained:
[1] = target: T1, caspase-3 (Homo sapiens, UniProt P42574)
T1 sequence (P42574 29-175 limits assumed): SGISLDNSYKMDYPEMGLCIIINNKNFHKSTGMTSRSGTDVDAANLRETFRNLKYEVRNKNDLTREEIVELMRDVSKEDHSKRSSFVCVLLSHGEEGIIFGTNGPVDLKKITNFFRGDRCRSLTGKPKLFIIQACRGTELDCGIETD
T1 sequence (P42574 176-277 limits assumed): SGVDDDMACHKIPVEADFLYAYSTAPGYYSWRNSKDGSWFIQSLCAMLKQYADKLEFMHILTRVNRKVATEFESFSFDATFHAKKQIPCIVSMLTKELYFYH

[2] = target: T2, caspase-1 (Homo sapiens, UniProt P29466)
T2 sequence (P29466 120-297 limits assumed): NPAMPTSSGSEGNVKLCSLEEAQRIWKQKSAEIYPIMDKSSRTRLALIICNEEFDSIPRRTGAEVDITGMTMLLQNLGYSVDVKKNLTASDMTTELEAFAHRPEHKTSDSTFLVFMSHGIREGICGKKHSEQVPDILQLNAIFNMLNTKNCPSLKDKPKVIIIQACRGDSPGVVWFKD
T2 sequence (P29466 317-404 limits assumed): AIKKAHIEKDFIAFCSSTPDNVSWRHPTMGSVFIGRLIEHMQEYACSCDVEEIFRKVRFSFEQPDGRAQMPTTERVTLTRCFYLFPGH

Ac-YVAD-CHO
Ki [1]: 12 µM | Ki [2]: < 1 nM
